# Results reported in PMC13110364, “Design, Synthesis, and Biological Evaluation of Novel Triazine‐Based Dual Histone Deacetylase/phosphatidylinositol 3‐kinase Inhibitors for Breast Cancer Therapy” (Chemmedchem, 2026).
# Key:
# HDAC3 = HDAC3 (Homo sapiens, UniProt O15379); test: Selectivity profile, single dose 0.5 µM, HDAC3; format: biochemical; details: remaining enzyme activity; single‐dose duplicate mode at 0.5 μM; read-out: Enzyme % activity (relative to DMSO controls) at 0.5 µM, HDAC3
# Procedure: The inhibitory profiles of 5b and 5f were evaluated against selected HDAC isoforms (HDAC1, HDAC3, HDAC4, HDAC8, and HDAC10) and PI3K isoforms (PI3Kδ, PI3Kγ, and PI3Kβ) at a fixed concentration of 0.5 µM (Table 3). […] While we explored the phenyl ring in the linker region to achieve selectivity for the HDAC6 isoform, we still observed HDAC class I inhibition. […] It is important to highlight that PI3Kδ is mainly expressed in hematopoietic system and plays roles in leukocyte signaling, T‐cell activation, and immune cell trafficking. FDA‐approved drug idelalisib is a selective PI3Kδ inhibitor in B‐cell malignancies; however, this drug is also related to disruption of the immune system, which can lead to immune manifestations, such as infections. In addition, while isoform‐selective PI3K inhibitors are well tolerated, pan‐inhibition of PI3K is less expected that compensatory mechanisms by the action of other PI3Ks can take place. Thus, a more balanced profile of PI3K inhibition can lead to an overall lack of toxicity of PI3K inhibitors.
# [1] = tested on: MDA‐MB‐231 triple‐negative breast cancer cell line; test: MTS cell viability assay, MDA-MB-231; format: cell-based; details: MDA‐MB‐231 cells, 72 h treatment
# Procedure: (§1) The cell viability effects of compounds 5a–5f were assessed in LY2, JIMT1, and MDA‐MB‐231 breast cancer cell lines using the 3‐(4,5‐dimethylthiazol‐2‐yl)‐5‐(3‐carboxymethoxyphenyl)‐2‐(4‐sulfophenyl)‐2H‐tetrazolium (MTS) assay. The MTS assay measures metabolic viability and serves as a first‐pass screen.
# (§2) JIMT‐1 (DSMZ ACC 589) and MDA‐MB‐231 (ATCC HTB‐26) breast cancer cell lines were maintained in Dulbecco's Modified Eagle Medium (DMEM) High Glucose with L‐glutamine (D5796, Sigma) supplemented with 10% fetal calf serum. MCF7‐derivative LY2 breast cancer cells were previously described (REF: PMID: 33420368). LY2 cells were cultured in phenol red‐free MEM (PRF‐MEM; 51 200‐046, Gibco) supplemented with 10% charcoal dextran‐stripped fetal calf serum (CDS‐FCS; F6765, Merck), 2 mmol/L L‐glutamine (G7513, Merck), and 10^−8 mol/L 4‐hydroxytamoxifen (4‐OHT; H7904, Merck). All cell lines were maintained at 37°C in a humidified incubator with 5% CO2 and regularly authenticated and tested for mycoplasma.
# (§3) Cell viability was evaluated in response to increasing concentrations of 5a‐5f (0.3, 1, 3, 10, and 30 μM) or vehicle control (0.1% DMSO). LY2, JIMT1, and MDA‐MB‐231 cells were seeded at a density of 2,500 cells per well in 96‐well plates with a total volume of 100 μL per well. Prior to treatment, cells were serum‐deprived for 24 h. Following serum depletion, cells were treated in complete growth medium for 72 h. Cell viability was assessed using the MTS assay (G1111, Promega) according to the manufacturer's instructions. Absorbance was measured at 495 nm using a BioTek Synergy HTX Multi‐Mode Microplate Reader (Agilent). Results were normalized to the vehicle control (DMSO), and the half‐maximal inhibitory concentration (IC50) of the inhibitors was determined by nonlinear regression (curve fit) using a four‐parameter variable slope model.
# [2] = tested on: JIMT1 breast cancer cells; test: MTS cell viability assay, JIMT1; format: cell-based; details: Homo sapiens, JIMT-1, 72 h treatment
# Procedure: as §1, §2, §3
# MCF‐10A cells = test: Cell viability in nontransformed cell line MCF-10A; format: cell-based; details: Homo sapiens
# Description: Thus, further optimization will be required to improve the therapeutic index.
# FIGURE 5 Dose‐dependent effects of compound treatment (5b and 5f) on nontransformed breast cell viability across MCF‐10A.
# PI3Kα = PI3Kα (Homo sapiens, UniProt P42336); test: PI3Kα inhibition, 10-dose IC50 (Reaction Biology Corporation); format: biochemical
# PI3Kα, sequence (P42336 whole entry): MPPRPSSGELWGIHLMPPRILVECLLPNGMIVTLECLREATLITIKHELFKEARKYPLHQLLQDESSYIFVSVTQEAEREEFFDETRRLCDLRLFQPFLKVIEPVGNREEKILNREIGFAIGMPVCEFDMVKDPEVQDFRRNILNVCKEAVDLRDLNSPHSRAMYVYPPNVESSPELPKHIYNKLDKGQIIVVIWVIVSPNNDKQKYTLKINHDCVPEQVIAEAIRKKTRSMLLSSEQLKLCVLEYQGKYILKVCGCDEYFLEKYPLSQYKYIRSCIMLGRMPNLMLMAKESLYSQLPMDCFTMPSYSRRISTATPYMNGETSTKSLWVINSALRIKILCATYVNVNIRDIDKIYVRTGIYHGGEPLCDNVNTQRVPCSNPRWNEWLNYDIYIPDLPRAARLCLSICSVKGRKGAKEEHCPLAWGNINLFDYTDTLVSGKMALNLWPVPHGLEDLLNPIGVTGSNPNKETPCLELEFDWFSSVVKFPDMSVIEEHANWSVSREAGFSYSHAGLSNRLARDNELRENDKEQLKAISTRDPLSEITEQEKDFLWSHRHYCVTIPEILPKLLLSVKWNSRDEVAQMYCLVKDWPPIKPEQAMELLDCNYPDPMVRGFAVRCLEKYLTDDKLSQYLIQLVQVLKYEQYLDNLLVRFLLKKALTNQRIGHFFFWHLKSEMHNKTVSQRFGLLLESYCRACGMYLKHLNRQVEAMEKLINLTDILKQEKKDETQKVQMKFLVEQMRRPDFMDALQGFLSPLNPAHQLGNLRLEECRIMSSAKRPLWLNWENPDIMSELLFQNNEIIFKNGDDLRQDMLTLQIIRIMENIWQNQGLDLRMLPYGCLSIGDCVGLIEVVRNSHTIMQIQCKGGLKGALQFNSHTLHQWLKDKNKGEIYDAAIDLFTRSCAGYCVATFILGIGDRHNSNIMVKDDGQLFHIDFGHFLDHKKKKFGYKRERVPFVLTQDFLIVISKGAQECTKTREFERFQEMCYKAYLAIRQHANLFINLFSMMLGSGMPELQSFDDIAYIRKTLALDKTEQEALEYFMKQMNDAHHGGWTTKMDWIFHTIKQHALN
# PI3Kα, sequence (P27986 whole entry partner): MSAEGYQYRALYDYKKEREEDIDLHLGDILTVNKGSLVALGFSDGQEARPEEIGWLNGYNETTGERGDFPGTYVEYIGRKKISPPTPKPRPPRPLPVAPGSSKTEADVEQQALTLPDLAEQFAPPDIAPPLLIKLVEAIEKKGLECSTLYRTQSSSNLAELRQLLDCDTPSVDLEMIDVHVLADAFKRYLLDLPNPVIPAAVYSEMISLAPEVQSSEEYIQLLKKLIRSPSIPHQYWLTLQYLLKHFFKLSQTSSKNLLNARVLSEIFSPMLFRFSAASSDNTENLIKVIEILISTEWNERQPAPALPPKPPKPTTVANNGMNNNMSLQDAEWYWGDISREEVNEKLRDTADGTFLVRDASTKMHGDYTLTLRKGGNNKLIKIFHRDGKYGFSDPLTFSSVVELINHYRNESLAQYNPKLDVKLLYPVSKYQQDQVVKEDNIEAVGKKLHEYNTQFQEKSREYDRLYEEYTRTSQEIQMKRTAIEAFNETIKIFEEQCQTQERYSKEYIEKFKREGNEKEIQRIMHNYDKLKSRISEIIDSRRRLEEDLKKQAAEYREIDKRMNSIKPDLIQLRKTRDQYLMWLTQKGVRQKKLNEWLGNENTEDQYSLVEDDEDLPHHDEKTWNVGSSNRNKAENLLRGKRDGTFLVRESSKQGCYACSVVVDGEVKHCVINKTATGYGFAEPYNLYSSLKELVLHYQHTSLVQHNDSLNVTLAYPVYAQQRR
# HDAC3, sequence (O15379 whole entry, canonical isoform): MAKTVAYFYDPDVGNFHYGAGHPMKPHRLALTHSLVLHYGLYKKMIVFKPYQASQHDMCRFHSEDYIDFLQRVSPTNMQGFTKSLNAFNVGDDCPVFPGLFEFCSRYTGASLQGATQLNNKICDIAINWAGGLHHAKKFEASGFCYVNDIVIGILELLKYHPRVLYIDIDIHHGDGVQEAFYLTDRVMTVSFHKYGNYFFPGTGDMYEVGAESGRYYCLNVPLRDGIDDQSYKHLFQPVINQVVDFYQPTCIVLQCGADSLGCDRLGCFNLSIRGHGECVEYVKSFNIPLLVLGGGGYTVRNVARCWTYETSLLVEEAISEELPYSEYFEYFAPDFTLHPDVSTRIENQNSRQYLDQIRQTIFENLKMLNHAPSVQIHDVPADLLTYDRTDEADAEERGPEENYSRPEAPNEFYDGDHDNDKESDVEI
# HDAC3, sequence (Q9Y618 395-489 partner limits assumed): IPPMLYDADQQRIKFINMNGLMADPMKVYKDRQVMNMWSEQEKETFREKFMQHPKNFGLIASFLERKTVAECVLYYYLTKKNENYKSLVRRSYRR
remaining activity at 0.5 µM (HDAC3) [%],"IC50 ([1]; Homo sapiens, MDA-MB-231, 72 h) [µM]",IC50 [1] [µM],IC50 [2] [µM],IC50 (PI3Kα) [nM],SMILES,IC50 (MCF‐10A cells) [µM]
26.6,< 5,3.3 ± 0.13,3.5 ± 0.95,236,"COc1ccc(-c2nc(NCc3ccc(C(=O)NO)cc3)nc(N3CCOCC3)n2)cn1 [Compound 5f, N‐Hydroxy‐4‐(((4‐(6‐Methoxypyridin‐3‐yl)‐6‐Morpholino‐1,3,5‐Triazin‐2‐yl)Amino)Methyl)Benzamide]",< 1
22.6,< 5,4.4 ± 0.54,5.72 ± 0.76,17.5,"O=C(NO)c1ccc(CNc2nc(-c3cccc(O)c3)nc(N3CCOCC3)n2)cc1 [Compound 5b, N‐Hydroxy‐4‐(((4‐(3‐Hydroxyphenyl)‐6‐Morpholino‐1,3,5‐Triazin‐2‐yl)Amino)Methyl)Benzamide]",< 1
